# Measured values published in US9693994B2, “Class IIa HDAC inhibitors for the treatment of infection” (Research Development Foundation, priority 2014, dated 2017).
# Like-named read-outs stand apart in the source and are kept apart here.
# B1: leptin: hormone injected into ob/ob mice; triggers catecholamine-dependent increases in cAMP signaling (protein, UniProt P41160 22-167, looked up)
# Leptin: VPIQKVQDDTKTLIKTIVTRINDISHTQSVSAKQRVTGLDFIPGLHPILSLSKMDQTLAVYQQVLTSLPSQNVLQIANDLENLRDLLHLLAFSKSCSLPQTSGLQKPESLDGVLEASLYSTEVVALSRLQGSLQDILQQLDVSPEC
# How the values were obtained:
# [1] = tested on: Bone Marrow Macrophages (BMMs); test: Cytokine mRNA and secretion in LPS-treated bone marrow macrophages; type: cell-based, mouse
# HDAC4 = HDAC4 dephosphorylation and localization in BMMs; type: cell-based, mouse; details: wild-type BMMs, PGE2 in combination with LPS
# Method: Bone marrow macrophage cells (BMMs) were prepared from mouse bone marrow cells as described (Weischenfeldt and Porse, 2008).
# NF-κB subunit p65 = test: NF-κB signalling, immunoblot and ChIP in LPS-treated BMMs; type: cell-based, mouse
# Method: Bone marrow macrophage cells (BMMs) were prepared from mouse bone marrow cells as described ([…] and Porse, 2008). BMMs were plated in 150-mm plates and exposed to LPS (10 ng/ml) with or without PGE2 (100 nM) for 1 hr. ChIP assays were performed as described (Screaton et al., 2004). RNA was isolated by RNeasy kit (Qiagen).
# [2] = Glucose and insulin tolerance testing in HFD-fed mice; type: in vivo; details: rolipram 7 days
# Method: For HFD studies, 6-week-old mice were transferred to a 60% HFD (Research Diets, D12492) for 4 to 12 weeks as indicated. Magnetic resonance imaging scans for fat and lean mass were performed using an Echo MRI-100 instrument according to the manufacturer's instructions. For metabolic cage studies, mice were individually housed for at least 2 days. Food intake, total activity, oxygen consumption and carbon dioxide production were simultaneously measured for individually housed mice with a LabMaster system (TSE Systems). Data were collected for 2-3 days and analyzed. For glucose tolerance testing, mice were fasted for 16 h and then injected i.p. with glucose (1.5 g/kg). For insulin tolerance testing, mice were fasted 2 h and injected i.p. with insulin (Humulin; 1 U/kg). Rolipram (5 mg/kg/day) was injected i.p. for 7 days. Blood was collected from the tail vein and glucose levels were measured with a One Touch Ultra Glucometer (Johnson & Johnson).
# [3] = LPS-induced sepsis: survival and circulating cytokines; type: in vivo, mice; details: for effect on survival after LPS: wild-type/control mice
# Method: Cytokine and Metabolite Analysis: Mice were injected with LPS (30 mg/kg) with or without Rolipram (5 mg/kg for 16 hours (h) and serum was obtained through cardiac puncture. BMMs were stimulated with LPS (10 ng/ml) with or without PGE2 (100 nM) for 16 hr and supernatant was collected.
# All mice were housed in colony cages with a 12 hr light/dark cycle in a temperature-controlled environment. For LPS-induced sepsis, mice were injected intraperitoneally with 30 mg/kg LPS or PBS (UT). Survival after LPS was monitored. For studies with KO mice, age-matched wild-type littermates were employed as controls.
# histone deacetylase = details: Yoshida et al., 1990; read-out: Ki, inhibitor of histone deacetylase; cited from earlier work
# [4] = Leptin injection in ob/ob mice: norepinephrine, cAMP and HDAC4 in adipose
molecule,measurement,setting,value
"CCCCC[C@H](O)/C=C/[C@H]1[C@H](O)CC(=O)[C@@H]1C/C=C\CCCC(=O)O [PGE2, Prostaglandin E2]",pro-inflammatory cytokine mRNA amounts and secretion,[1]; cultured BMMs exposed to LPS,reduced
same,IL10 mRNA and protein secretion,"[1]; wild-type BMMs, LPS plus PGE2",upregulated
same,HDAC4 dephosphorylation at Ser246 and nuclear translocation,HDAC4,triggered
same,"activation of P38 or JNK, phosphorylation of IκBα or p65 in response to LPS","NF-κB subunit p65; BMMs, LPS plus PGE2",did not interfere
same,p65 recruitment to the TNFα and IL12β promoters,"NF-κB subunit p65; BMMs, LPS plus PGE2 compared to LPS alone",reduced
same,amounts of acetylated p65 in HDAC4 MKO cells,"NF-κB subunit p65; HDAC4 MKO BMMs, LPS plus PGE2",did not reduce
same,LPS-dependent increases in p65 and histone H4K5 acetylation over cytokine promoters,"NF-κB subunit p65; wild-type BMMs, LPS plus PGE2",blocked
COc1ccc(C2CNC(=O)C2)cc1OC1CCCC1 (stereo not shown) [Rolipram],glucose tolerance and insulin sensitivity in HDAC4 MKO,[2]; HDAC4 MKO littermates on HFD,not
same,glucose tolerance and insulin sensitivity,[2]; wild-type mice on HFD,improved
same,"effect on LPS-induced cytokine release (circulating TNFα, IL12β)","[3]; C57BL/6J mice, LPS 30 mg/kg, Rolipram 5 mg/kg co-administered",blocked
same,effect on survival after LPS in HDAC4 MKO mice,"[3]; HDAC4 MKO littermates, LPS plus rolipram",modest effects
same,effect on survival after LPS,"[3]; LPS 30 mg/kg, Rolipram 5 mg/kg co-administered",blocked
same,effect on survival after LPS,"[3]; LPS 30 mg/kg, Rolipram 5 mg/kg co-administered, listed as rolipram",improved survival
"CC(/C=C/C(=O)NO)=C\[C@@H](C)C(=O)c1ccc(N(C)C)cc1 [Trichostatin A, (2E,4E,6R)-7-(4-(Dimethylamino)phenyl)-N-hydroxy-4,6-dimethyl-7-oxo-2,4-heptadienamide]",Ki,histone deacetylase,~3.4 nM
CC(C)NCC(O)COc1cccc2ccccc12 (stereo not shown) [propranolol],leptin-induced HDAC4 de-phosphorylation in WAT,[4]; leptin plus propranolol,propranolol-sensitive
same,leptin-induced rise in cAMP,"[4]; ob/ob mice, leptin plus β adrenergic antagonist",blocked
CN[C@@H]1C[C@H]2O[C@@](C)([C@@H]1OC)n1c3ccccc3c3c4c(c5c6ccccc6n2c5c31)C(=O)NC4 [staurosporine],cytokine gene expression,"[1]; BMMs exposed to LPS, pre-treatment with SIK inhibitor 10 nM",decreased
cholera toxin,cytokine gene expression,[1],lowered
pertussis toxin,cytokine gene expression,[1],lowered
B1,HDAC4 de-phosphorylation in WAT,[4]; leptin administration,promoted
same,nuclear translocation of HDAC4 in adipose resident macrophages,[4]; leptin administration,stimulated
same,circulating concentrations of norepinephrine and cAMP content in epididymal fat pads,"[4]; ob/ob mice, leptin injection",upregulated
